Laboratory results taken from PubChem BioAssay AID720585 (Broad Institute, 2013).
The source made the active and inactive calls.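 How the source made its calls: active means fitted curve falling to -50% or lower, with AC50 no more than twice the sample's top valid dose; inactive means the rest, including changes in the wrong direction.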

Columns and labels:
[1] = ATP-based viability loss in A549 cells – cell-based, CellTiter-Glo luminescence, dry powder samples, cytotoxicity control, dose response (AID 720585); details: A549 viability, CellTiter-Glo ATP luminescence, 72 h; at 26 µM (top of the series)
[2] = tested on: A549 viability, CellTiter-Glo ATP luminescence, 72 h; test: as above

With Cc1cccc(/C=C(\CCC(=O)O)c2nc3ccccc3s2)c1 the activity change, negative = cytotoxicity [1] was -7.62% (inactive).
With O=C(c1ccc2c(c1)OCO2)N1CCN(Cc2ccccc2)CC1 the activity change, negative = cytotoxicity [1] was 9.39% (inactive).
For O=C(Nc1ccc2[nH]ccc2c1)N1CCN(c2ccccc2)CC1, the activity change, negative = cytotoxicity [1] was -0.377% (inactive).
With CCOC(=O)N1CCN(C(=O)Nc2ccc3snnc3c2)CC1 the activity change, negative = cytotoxicity [1] was -11% (inactive).
For Cc1nc2cc(NC(=O)N3CCN(c4ccccc4)CC3)ccc2o1, the activity change, negative = cytotoxicity [1] was -4.28% (inactive).
In the case of O=C(O)CC/C(=C\c1ccccc1[N+](=O)[O-])c1nc2ccccc2s1, the activity change, negative = cytotoxicity [1] is reported as -7.05% (inactive).
For COc1ccc(C(=O)N2CCN(c3ccc(C(C)=O)cc3)CC2)cc1, the activity change, negative = cytotoxicity [1] was 13.7% (inactive).
In the case of CC(=O)c1ccc(N2CCN(C(=O)c3ccc4c(c3)OCO4)CC2)cc1, the activity change, negative = cytotoxicity [1] is reported as -12.8% (inactive).
For CCc1ccc(N2CCN(C(=O)c3ccc4c(c3)OCO4)CC2)cc1, the AC50 [2] was > 26 µM (inactive).
With Cc1ccccc1/C=C(\CCC(=O)O)c1nc2ccccc2s1 the AC50 [2] was > 26 µM (inactive).
In the case of COc1cccc(C(=O)N2CCN(c3ccc(C(C)=O)cc3)CC2)c1, the activity change, negative = cytotoxicity [1] is reported as -3.71% (inactive).
In the case of O=C(Nc1cccc(F)c1)N1CCN(c2ccccc2)CC1, the activity change, negative = cytotoxicity [1] is reported as 5.56% (inactive).
For CCc1ccc(C(=O)N2CCN(Cc3ccc4c(c3)OCO4)CC2)cc1, the activity change, negative = cytotoxicity [1] was -0.901% (inactive).
In the case of O=C(c1ccc2c(c1)OCO2)N1CCN(c2ccccc2)CC1, the activity change, negative = cytotoxicity [1] is reported as -3.52% (inactive).
For CC(=O)c1ccc(N2CCN(C(=O)c3ccc(Br)cc3)CC2)c(F)c1, the activity change, negative = cytotoxicity [1] was -2.87% (inactive).
With CC(=O)c1ccc(N2CCN(C(=O)c3ccc4ncsc4c3)CC2)cc1 the activity change, negative = cytotoxicity [1] was 2.15% (inactive).
For O=C(Nc1ccc2snnc2c1)N1CCN(c2ccccc2)CC1, the activity change, negative = cytotoxicity [1] was -13.4% (inactive).
In the case of O=C(Nc1ccccc1)N1CCN(c2ccccc2)CC1, the activity change, negative = cytotoxicity [1] is reported as -0.224% (inactive).
For CC(C)(C)c1ccc(C(=O)N2CCN(c3ccc4c(c3)OCO4)CC2)cc1, the activity change, negative = cytotoxicity [1] was -3.25% (inactive).
With COc1cc(/C=C/C(=O)Nc2cccnc2)cc(OC)c1OC the activity change, negative = cytotoxicity [1] was 11.1% (inactive).
In the case of Cc1cc(C)n2nc(C(=O)Nc3cccnc3)nc2n1, the AC50 [2] is reported as > 26 µM (inactive).
For COc1cccc(NC(=O)N2CCN(c3ccccc3)CC2)c1, the activity change, negative = cytotoxicity [1] was 8.71% (inactive).
With COc1ccc(-c2cc(C(F)(F)F)n3nc(C(=O)Nc4cccnc4)cc3n2)cc1 the activity change, negative = cytotoxicity [1] was 5.08% (inactive).
In the case of CC(=O)c1ccc(N2CCN(C(=O)c3cccnc3)CC2)cc1, the activity change, negative = cytotoxicity [1] is reported as 0.559% (inactive).
In the case of O=C(c1ccc2c(c1)OCO2)N1CCN(c2ccc(Cl)cc2)CC1, the activity change, negative = cytotoxicity [1] is reported as -6.96% (inactive).
In the case of Cc1ccc(NC(=O)N2CCN(c3ccccc3)CC2)cc1, the activity change, negative = cytotoxicity [1] is reported as -5.15% (inactive).
For CC(=O)c1ccc(N2CCN(Cc3ccc4c(c3)OCO4)CC2)cc1, the activity change, negative = cytotoxicity [1] was -4.27% (inactive).
With Cc1cc(C)n2nc(C(=O)Nc3cccnc3)cc2n1 the activity change, negative = cytotoxicity [1] was 0.879% (inactive).
With O=C(Nc1cccnc1)c1cc2nc(-c3cccs3)cc(C(F)(F)F)n2n1 the activity change, negative = cytotoxicity [1] was -3.55% (inactive).
In the case of CC(=O)c1ccc(N2CCN(C(=O)c3ccc(C)cc3)CC2)cc1, the activity change, negative = cytotoxicity [1] is reported as -8.81% (inactive).
For CCN(CC)c1ccc2cc(C(=O)c3cccs3)c(=O)oc2c1, the activity change, negative = cytotoxicity [1] was 7.58% (inactive).
With COc1ccc(N2CCN(C(=O)c3ccc4c(c3)OCO4)CC2)cc1 the activity change, negative = cytotoxicity [1] was -3.29% (inactive).
With O=C(c1ccc2c(c1)OCO2)N1CCN(c2ccc(F)cc2)CC1 the activity change, negative = cytotoxicity [1] was -0.413% (inactive).
For Cc1ccc(/C=C(\CC(=O)O)c2nc3ccccc3s2)cc1[N+](=O)[O-], the activity change, negative = cytotoxicity [1] was 7.43% (inactive).
With Cc1ccc(/C=C(\CCC(=O)O)c2nc3ccccc3s2)cc1[N+](=O)[O-] the activity change, negative = cytotoxicity [1] was -3.79% (inactive).
With CC(=O)c1ccc(N2CCN(C(=O)c3ccc4c(c3)OCCO4)CC2)cc1 the activity change, negative = cytotoxicity [1] was -10.1% (inactive).
In the case of COc1ccc(NC(=O)N2CCN(c3ccccc3)CC2)cc1, the activity change, negative = cytotoxicity [1] is reported as -3.72% (inactive).
In the case of CC(=O)c1ccc(N2CCN(C(=O)c3ccc(Cl)cc3)CC2)cc1, the activity change, negative = cytotoxicity [1] is reported as 3.76% (inactive).
In the case of O=C(COc1ccc2ccc(=O)oc2c1)N1CCN(c2ccc(F)cc2)CC1, the activity change, negative = cytotoxicity [1] is reported as -15.6% (inactive).
With O=C(O)CC/C(=C\c1ccc([N+](=O)[O-])cc1)c1nc2ccccc2s1 the activity change, negative = cytotoxicity [1] was 5.24% (inactive).
In the case of CC(=O)c1ccc(N2CCN(C(=O)c3cccc(F)c3)CC2)cc1, the activity change, negative = cytotoxicity [1] is reported as -1.71% (inactive).
With CC(=O)c1ccc(N2CCN(C(=O)c3ccccc3)CC2)cc1 the AC50 [2] was > 26 µM (inactive).
In the case of CC(=O)c1ccc(N2CCN(C(=O)c3cccc(Cl)c3)CC2)cc1, the activity change, negative = cytotoxicity [1] is reported as 4.97% (inactive).
With Cc1ccc(/C=C(\CCC(=O)O)c2nc3ccccc3s2)cc1 the activity change, negative = cytotoxicity [1] was -2.14% (inactive).
In the case of COC(=O)c1c(C(=O)OC)c(-c2cccc(F)c2)n2c1CS(=O)C2 (centres undefined), the activity change, negative = cytotoxicity [1] is reported as 2.89% (inactive).
With O=C(Nc1ccc(F)cc1)N1CCN(c2ccccc2)CC1 the activity change, negative = cytotoxicity [1] was -4.84% (inactive).
With O=C(Nc1cccc(Cl)c1)N1CCN(c2ccccc2)CC1 the activity change, negative = cytotoxicity [1] was -1.38% (inactive).
For Cc1ccc(-c2cc(C(F)(F)F)n3nc(C(=O)Nc4cccnc4)cc3n2)cc1, the activity change, negative = cytotoxicity [1] was -7.78% (inactive).
In the case of CC(=O)c1ccc(N2CCN(C(=O)c3ccc(F)cc3)CC2)cc1, the activity change, negative = cytotoxicity [1] is reported as -0.22% (inactive).
In the case of Cc1nc2ccc(NC(=O)N3CCN(c4ccccc4)CC3)cc2s1, the activity change, negative = cytotoxicity [1] is reported as 0.35% (inactive).
For COc1cccc(NC(=O)CCC2CCN(C(=O)c3ccc(C(C)=O)s3)CC2)c1, the activity change, negative = cytotoxicity [1] was -3.35% (inactive).
In the case of O=C(Nc1ccc(Cl)cc1)c1cc2nc(C3CC3)cc(C(F)(F)F)n2n1, the activity change, negative = cytotoxicity [1] is reported as 12.6% (inactive).
With O=C(Nc1ccc(Cl)c(-c2nc3ccccc3[nH]2)c1)c1cccnc1 the AC50 [2] was > 26 µM (inactive).
For O=C(Nc1cccnc1)c1cnn2c(C(F)F)cc(C3CC3)nc12, the activity change, negative = cytotoxicity [1] was -2.75% (inactive).
For O=C(Nc1cccnc1)c1cnn2c(C(F)(F)F)cc(-c3ccccc3)nc12, the activity change, negative = cytotoxicity [1] was -2.52% (inactive).
With O=C(Nc1ccc2snnc2c1)N1CCOCC1 the activity change, negative = cytotoxicity [1] was 9.86% (inactive).
In the case of O=C(Nc1ccncc1)c1cc2nc(C3CC3)cc(C(F)F)n2n1, the activity change, negative = cytotoxicity [1] is reported as 2.81% (inactive).
In the case of O=C(Nc1cccnc1)N1CCN(c2ccccc2)CC1, the activity change, negative = cytotoxicity [1] is reported as -2.28% (inactive).
With O=C(Nc1ccc2snnc2c1)N1CCCCC1 the activity change, negative = cytotoxicity [1] was -9.31% (inactive).
